Data as given in patent EP1200406B1, “CYCLIC AMIDES AND IMIDES HAVING SELECTIVE ANTAGONIST ACTIVITY AT ALPHA-1D ADRENERGIC RECEPTOR” (RECORDATI INDUSTRIA CHIMICA E FARMACEUTICA S.p.a., priority 1999, dated 2001).
Like-named read-outs stand apart in the source and are kept apart here.

Columns and labels:
[1] = target: T1, human recombinant α1a adrenoceptor (Homo sapiens, UniProt P35348); test: Radioligand binding ([3H]prazosin) on membranes of CHO cells expressing cloned α1a adrenoceptor; details: human cloned receptor, CHO cell membranes, 0.2 nM [3H]prazosin; read-out: Affinity (Ki) α1a
T1 construct: expressed in transfected cells; host or cells: CHO cells (membranes)
T1 sequence (P35348 1-466): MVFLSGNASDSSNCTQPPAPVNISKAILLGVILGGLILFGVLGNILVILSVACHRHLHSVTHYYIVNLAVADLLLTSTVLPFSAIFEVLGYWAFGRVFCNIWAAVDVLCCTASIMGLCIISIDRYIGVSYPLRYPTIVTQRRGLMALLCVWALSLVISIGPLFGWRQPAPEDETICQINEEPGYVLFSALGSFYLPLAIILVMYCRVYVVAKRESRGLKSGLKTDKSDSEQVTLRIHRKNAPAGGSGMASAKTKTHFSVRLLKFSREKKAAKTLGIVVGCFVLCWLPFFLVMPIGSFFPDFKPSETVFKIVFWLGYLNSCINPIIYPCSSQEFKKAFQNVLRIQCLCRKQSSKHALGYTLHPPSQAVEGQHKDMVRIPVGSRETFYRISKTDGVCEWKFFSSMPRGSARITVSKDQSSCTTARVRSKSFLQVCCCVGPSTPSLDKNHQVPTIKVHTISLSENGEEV
Method: (§1) The determination of affinity for cloned subtypes of human α1 adrenergic receptors was performed in membranes from CHO cells (chinese hamster ovary cells) transfected by electroporation with DNA expressing the genes encoding each α1-adrenoceptor subtype, namely α1a, α1b and α1d.. Cloning and stable expression of the human α1-adrenoceptor gene were performed as previously described (Testa et al., Pharmacol. Comm. 6, 79-86 (1995)). CHO cell membranes were incubated in […] Tris pH 7.4 with 0.2 nM [^3H]prazosin, in a final volume of 1.02 ml for 30 minutes at 25°C, in the absence or presence of competing drugs (1 pM-10 µM). Non-specific binding was determined in the presence of 10 µM phentolamine. Incubation was stopped by addition of ice-cold Tris buffer and rapid filtration through 0.2% polyethyleneimine pretreated Schleicher & Schuell GF52 filters. […] The HeLa cells were grown as monolayers in Dulbecco's modified Eagle's medium (DMEM), supplemented with 10% foetal calf serum and gentamicin (100 µg/ml), 5% CO2, at 37°C. The cells were detached from the growth flask at 95% confluence by a cell scraper and were lysed in ice-cold 5 mM Tris and 5-mM EDTA buffer (pH 7.4). The homogenates were centrifuged at 40000 x g x 20 minutes and the membranes were re-suspended in a small volume of ice-cold 5 mM Tris and 5-mM EDTA buffer (pH 7.4) and immediately frozen and stored at -70°C until use. On the experiment day, the cell membranes were re-suspended in a buffer containing 50 mM Tris (pH 7.4), 2.5 mM MgCl2, 10 µM pargyline (Fargin et al., Nature 335, 358-360 (1988)). […] The incubation was stopped by addition of ice-cold Tris buffer and rapid filtration through 0.2%-polyethyleneimine-pretreated Schleicher & Schuell filters. The inhibition of specific binding of the radioligands by the drugs was analysed to estimate the IC50 value by using the non-linear curve-fitting programme Allfit (De Lean et al., Am. J. Physiol. 235, E97-E102 (1978)). The IC50 value was converted to an affinity constant (Ki) by the equation of Cheng & Prusoff (Biochem. Pharmacol. 22, 3099-3108 (1973)). Data were expressed as mean of Ki.

[2] = target: T2, human recombinant α1b adrenoceptor (Homo sapiens, UniProt P35368); test: Radioligand binding ([3H]prazosin) on membranes of CHO cells expressing cloned α1b adrenoceptor; details: human cloned receptor, CHO cell membranes, 0.2 nM [3H]prazosin; read-out: Affinity (Ki) α1b
T2 construct: expressed in transfected cells; host or cells: CHO cells (membranes)
T2 sequence (P35368 1-520): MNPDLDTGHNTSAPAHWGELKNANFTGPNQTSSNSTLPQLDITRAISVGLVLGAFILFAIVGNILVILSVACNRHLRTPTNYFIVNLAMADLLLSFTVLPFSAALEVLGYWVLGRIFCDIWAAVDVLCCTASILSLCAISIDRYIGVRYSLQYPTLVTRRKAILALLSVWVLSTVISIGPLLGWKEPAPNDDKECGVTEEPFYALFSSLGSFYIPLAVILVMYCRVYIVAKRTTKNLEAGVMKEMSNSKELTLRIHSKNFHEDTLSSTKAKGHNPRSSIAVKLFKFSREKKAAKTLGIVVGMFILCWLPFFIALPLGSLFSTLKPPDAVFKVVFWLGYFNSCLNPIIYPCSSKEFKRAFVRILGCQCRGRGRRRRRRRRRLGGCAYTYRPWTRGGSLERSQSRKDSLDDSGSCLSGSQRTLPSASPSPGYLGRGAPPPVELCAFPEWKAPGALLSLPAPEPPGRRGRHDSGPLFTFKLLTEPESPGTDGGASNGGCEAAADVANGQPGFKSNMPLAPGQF
Method: (§2) The determination of affinity for cloned subtypes of human α1 adrenergic receptors was performed in membranes from CHO cells (chinese hamster ovary cells) transfected by electroporation with DNA expressing the genes encoding each α1-adrenoceptor subtype, namely α1a, α1b and α1d.. Cloning and stable expression of the human α1-adrenoceptor gene were performed as previously described (Testa et al., Pharmacol. Comm. 6, 79-86 (1995)). CHO cell membranes were incubated in […] Tris pH 7.4 with 0.2 nM [^3H]prazosin, in a final volume of 1.02 ml for 30 minutes at 25°C, in the absence or presence of competing drugs (1 pM-10 µM). Non-specific binding was determined in the presence of 10 µM phentolamine. Incubation was stopped by addition of ice-cold Tris buffer and rapid filtration through 0.2% polyethyleneimine pretreated Schleicher & Schuell GF52 filters. Genomic clone G-21 coding for the human 5-HT1A-serotoninergic receptor was stably transfected in a human cell line (HeLa) (Fargin et al., J. Biol. Chem. 284, 14848-14852 (1989)). The HeLa cells were grown as monolayers in Dulbecco's modified Eagle's medium (DMEM), supplemented with 10% foetal calf serum and gentamicin (100 µg/ml), 5% CO2, at 37°C. The cells were detached from the growth flask at 95% confluence by a cell scraper and were lysed in ice-cold 5 mM Tris and 5-mM EDTA buffer (pH 7.4). The homogenates were centrifuged at 40000 x g x 20 minutes and the membranes were re-suspended in a small volume of ice-cold 5 mM Tris and 5-mM EDTA buffer (pH 7.4) and immediately frozen and stored at -70°C until use. On the experiment day, the cell membranes were re-suspended in a buffer containing 50 mM Tris (pH 7.4), 2.5 mM MgCl2, 10 µM pargyline (Fargin et al., Nature 335, 358-360 (1988)). […] The incubation was stopped by addition of ice-cold Tris buffer and rapid filtration through 0.2%-polyethyleneimine-pretreated Schleicher & Schuell filters. The inhibition of specific binding of the radioligands by the drugs was analysed to estimate the IC50 value by using the non-linear curve-fitting programme Allfit (De Lean et al., Am. J. Physiol. 235, E97-E102 (1978)). The IC50 value was converted to an affinity constant (Ki) by the equation of Cheng & Prusoff (Biochem. Pharmacol. 22, 3099-3108 (1973)). Data were expressed as mean of Ki.

[3] = target: T3, human 5-HT1A-serotoninergic receptor (Homo sapiens, UniProt P08908); test: Radioligand binding ([3H]8-OH-DPAT) on membranes of HeLa cells expressing cloned 5-HT1A receptor; details: read-out: Affinity (Ki) 5-HT1A
T3 construct: expressed in transfected cells; host or cells: HeLa cells (membranes)
T3 sequence (P08908 1-422): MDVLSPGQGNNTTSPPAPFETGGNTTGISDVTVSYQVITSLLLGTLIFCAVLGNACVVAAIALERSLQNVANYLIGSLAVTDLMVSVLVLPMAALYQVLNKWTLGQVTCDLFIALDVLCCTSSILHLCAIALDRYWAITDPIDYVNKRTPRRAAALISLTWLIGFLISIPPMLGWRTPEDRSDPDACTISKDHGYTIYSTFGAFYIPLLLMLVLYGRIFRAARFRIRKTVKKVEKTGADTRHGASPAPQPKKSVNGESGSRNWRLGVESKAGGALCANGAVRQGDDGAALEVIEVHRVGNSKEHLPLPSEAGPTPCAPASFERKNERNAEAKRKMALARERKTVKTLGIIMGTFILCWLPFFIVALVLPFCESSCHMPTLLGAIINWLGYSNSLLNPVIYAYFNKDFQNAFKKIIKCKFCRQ
Method: as §2

[4] = target: T4, human recombinant α1d adrenoceptor (Homo sapiens, UniProt P25100); test: Radioligand binding ([3H]prazosin) on membranes of CHO cells expressing cloned α1d adrenoceptor; details: human cloned receptor, CHO cell membranes, 0.2 nM [3H]prazosin; read-out: Affinity (Ki) α1d
T4 construct: expressed in transfected cells; host or cells: CHO cells (membranes)
T4 sequence (P25100 1-572): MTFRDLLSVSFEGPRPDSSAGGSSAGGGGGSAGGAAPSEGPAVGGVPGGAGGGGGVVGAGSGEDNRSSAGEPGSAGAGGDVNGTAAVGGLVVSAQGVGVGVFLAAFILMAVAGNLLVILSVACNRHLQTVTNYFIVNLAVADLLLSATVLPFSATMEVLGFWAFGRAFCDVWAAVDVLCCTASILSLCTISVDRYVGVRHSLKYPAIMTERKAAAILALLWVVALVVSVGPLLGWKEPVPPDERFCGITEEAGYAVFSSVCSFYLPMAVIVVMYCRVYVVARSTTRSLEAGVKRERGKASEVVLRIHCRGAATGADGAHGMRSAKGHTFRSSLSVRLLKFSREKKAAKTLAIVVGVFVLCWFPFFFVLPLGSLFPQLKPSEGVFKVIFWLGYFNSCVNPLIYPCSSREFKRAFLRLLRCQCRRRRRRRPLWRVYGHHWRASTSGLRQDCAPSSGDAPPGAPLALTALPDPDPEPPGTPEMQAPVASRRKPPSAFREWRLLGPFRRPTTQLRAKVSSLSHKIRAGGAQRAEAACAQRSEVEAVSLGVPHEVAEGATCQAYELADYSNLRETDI
Method: as §1

[5] = target: T5, Rat aorta α1D (Rattus norvegicus, UniProt P23944); test: Functional antagonism of noradrenaline-induced contraction, rat aorta strips; format: cell-based, Sprague Dawley rats; details: noradrenaline as agonist, 30 minutes incubation, Schild plot; read-out: Functional affinity pKB, Rat aorta α1D (converted)
T5 construct: from tissue; host or cells: rat thoracic aorta, helicoidal strips
T5 sequence (P23944 1-561): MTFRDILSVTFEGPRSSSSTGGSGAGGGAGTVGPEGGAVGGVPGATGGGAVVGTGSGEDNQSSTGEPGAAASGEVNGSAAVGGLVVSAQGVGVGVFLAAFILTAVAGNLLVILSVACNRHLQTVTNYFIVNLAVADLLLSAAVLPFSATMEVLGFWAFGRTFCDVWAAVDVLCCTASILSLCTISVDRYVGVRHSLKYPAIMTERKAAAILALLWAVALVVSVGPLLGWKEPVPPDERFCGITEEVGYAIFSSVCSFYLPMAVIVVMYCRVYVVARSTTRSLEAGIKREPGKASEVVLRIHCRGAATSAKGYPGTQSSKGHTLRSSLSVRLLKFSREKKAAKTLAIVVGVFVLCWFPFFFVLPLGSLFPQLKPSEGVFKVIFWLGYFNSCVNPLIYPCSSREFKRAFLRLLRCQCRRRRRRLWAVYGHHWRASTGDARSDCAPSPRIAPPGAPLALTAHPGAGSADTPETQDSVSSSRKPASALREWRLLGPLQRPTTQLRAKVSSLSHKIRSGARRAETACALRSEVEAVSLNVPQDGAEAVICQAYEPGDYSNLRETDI
Method: In vitro assessment of functional antagonism for α1-adrenoceptor subtypes
Thoracic aorta was obtained from Sprague Dawley rats, cut in helicoidal strips and placed in Krebs solution containing desmethylimipramine (0.1 µM), corticosterone (1 µM), propranol (1 µM) and yohimbine (0.1 µM). The strips were mounted for isotonic tension recording in an organ bath containing the above Krebs buffer enriched and aerated constantly with 95% O2 and 5% CO2, maintained at 37°C and loaded with 1.5 g. After an equilibration period, the strips were primed twice with 10 µM noradrenaline, then concentration/response-to-the-agonist curves were constructed before (basal) and after 30 minutes incubation with single antagonist concentrations (response). The Schild-plot parameters were evaluated by linear-regression analysis according to Tallarida and Murray (Manual of Pharmacologic Calculations with Computer Programs, 53-56, Springer-Verlag).

[6] = human cloned receptor, HeLa cell membranes, 1.2 nM [3H]8-OH-DPAT

Compound	Ki [1] [nM]	Ki [2] [nM]	Ki [3, 6] [nM]	Ki [4] [nM]	Ki [3] [nM]	Kb [5] [nM]
Cc1ccc(Cl)c(N2CCN(CCN3C(=O)CC4(CCCC4)CC3=O)CC2)c1 [Example 3, 8-{2-[4-(2-Chloro-5-methylphenyl)-1-pirerazinyl]-ethyl}-8-azaspiro[4.5]decane-7,9-dione]	126	193	69.5	–	–	–
O=C1CCC(=O)N1CCN1CCN(c2cc(Cl)ccc2Cl)CC1 [Example 12, 1-{2-[4-(2,5-Dichlorophenyl)-1-piperazinyl]-ethyl}-pyrrolidine-2,5-dione]	–	86.4	–	7.78	> 1000	–
O=C1CC2(CCCCCC2)CC(=O)N1CCN1CCN(c2cc(Cl)ccc2Cl)CC1 [Example 26, 3-{2-[4-(2,5-Dichlorophenyl)-1-piperazinyl]-ethyl}-3-azaspiro[5.6]dodecane-2,4-dione]	–	–	–	0.96	35.3	–
O=C1CC2(CCCC2)CCN1CCN1CCN(c2cc(Cl)ccc2Cl)CC1 [Example 19, 8-{2-[4-(2,5-Dichlorophenyl)-1-piperazinyl]-ethyl}-8-azaspiro[4.5]decane-7-one]	–	10.6	17.4	–	–	1.29
O=C1CC2(CCCCC2)CCN1CCN1CCN(c2cc(Cl)ccc2Cl)CC1 [Example 25, 3-{2-[4-(2,5-Dichlorophenyl)-1-piperazinyl]-ethyl}-3-azaspiro[5.5]undecane-2-one]	–	–	–	0.66	40.4	–
